In patent US20260159527A1, “MACROCYCLIC BCL6 DEGRADERS” (DANA-FARBER CANCER INSTITUTE, INC., priority 2022, published 2026):

Target: T1, BCL6 (Homo sapiens, UniProt P41182)
T1 construct: Endogenous BCL6 was tagged with the 11-amino acid SmBiT through CRISPR/Cas9 gene editing; endogenous in cells; host or cells: Su-DHL-4 cells, CRISPR/Cas9 knock-in single cell clone
Assay: HiBiT cellular degradation assay (Promega) in Su-DHL-4 cells
Format: cell-based
Details: concentration to reach 50% degradation; endogenous BCL6 tagged with SmBiT in Su-DHL-4 cells; 24 hr of compound treatment; relative to DMSO control
Description: DC50 (concentration to reach 50% degradation) values were determined from a cellular degradation assay (HiBiT, Promega™) in Su-DHL-4 cells (Table 1). Endogenous BCL6 was tagged with the 11-amino acid SmBiT through CRISPR/Cas9 gene editing and single cell clone selection. After 24 hr of compound treatment, cells were lysed and incubated with LgBiT protein to reconstitute intact nanoluciferase. Substrate was then added and relative luciferase units were measured. Degradation levels for each treatment were taken as a percentage compared to the control, 100% DMSO (Prism).

DC50 [µM] | Structure (SMILES)
0.0024 | C[C@H]1C[C@@H]2CN(C1)c1ncc(Cl)c(n1)Nc1cc(c3c(c1)n(CCC(C)(C)O)c(=O)n3C)OCCN2 [Compound 16, (1^3R, 1^5S)-2^5-Chloro-4^1-(3-hydroxy-3-methylbutyl)-1^5,4^3-dimethyl-4^2,4^3-dihydro-41 H-5-oxa-3,8-diaza-4(6,4)-benzo[d]imidazola-2(2,4)-pyrimidina-1 (1,3)-piperidinacyclooctaphan-4^2-one]
0.0142 | C[C@@H]1CN2C[C@H](NCCOc3cc(cc4[nH]c(=O)n(C)c34)Nc3nc2ncc3F)C1(F)F [Compound 38]
0.033 | C[C@@H]1C[C@H]2CN(C1)c1ncc(Cl)c(n1)Nc1cc(c3c(c1)n(CCC(C)(C)O)c(=O)n3C)OCCN2 [Compound 17, (1^3S,1^5R)-2^5-Chloro-4^1-(3-hydroxy-3-methylbutyl)-1^5,4^3-dimethyl-4^2,4^3-dihydro-41 H-5-oxa-3,8-diaza-4(6,4)-benzo[d]imidazola-2(2,4)-pyrimidina-1 (1,3)-piperidinacyclooctaphan-4^2-one]
> 0.4 | C[C@H]1CN2C[C@@H](CCCOc3cc(cc4c3n(C)c(=O)n4CCC(C)(C)O)Nc3nc2ncc3Cl)C1(F)F [Compound 11, (1^3R, 1^5S)-2^5-Chloro-1^4, 1^4-difluoro-4^1-(3-hydroxy-3-methylbutyl)-1^5,4^3-dimethyl-4^2,4^3-dihydro-4^1H-5-oxa-3-aza-4(6,4)-benzo[d]imidazola-2(2,4)-pyrimidina-1 (1,3)-piperidinacyclooctaphan-4^2-one]
0.022 | C[C@@H]1CN2C[C@H](CCCOc3cc(cc4[nH]c(=O)c(=O)n(C)c34)Nc3nc2ncc3Cl)C1(F)F [Compound 28, (1^3S,1^3R)-2^5-Chloro-1^4,1^4-difluoro-1^5,4^4-dimethyl-41, 42, 43,44-tetrahydro-5-oxa-3-aza-4(7,5)-quinoxalina-2(2,4)-pyrimidina-1 (1,3)-piperidinacyclooctaphane-4^2,4^3-dione]
0.031 | C[C@@H]1CN2C[C@H](CCCOc3cc(cc4c3n(C)c(=O)c(=O)n4C[C@H]3C[C@H](O)C3)Nc3nc2ncc3Cl)C1(F)F [Compound 18-1, (1^3S,1^5R)-2^5-Chloro-1^4,1^4-difluoro-4^1-(((1r,3S)-3-hydroxycyclobutyl)methyl)-1^5,4^4-dimethyl-4^1,4^2,4^3,4^4-tetrahydro-5-oxa-3-aza-4(7,5)-quinoxalina-2(2,4)-pyrimidina-1 (1,3)-piperidinacyclooctaphane-4^2,4^3-dione]
> 0.4 | CNC(=O)COc1cc2cc3ccc2n(c1=O)CCCCO[C@H]1C[C@@H](C)CN(C1)c1ncc(Cl)c(n1)N3 [Compound A, reference compound]
0.082 | C[C@H]1CN2C[C@@H](NCCOc3cc(cc4c3n(C)c(=O)n4CCC(C)(C)O)Nc3nc2ncc3Cl)C1(F)F [Compound 15, (1^3R, 1^5S)-2^5-chloro-1^4,1^4-difluoro-4^1-(3-hydroxy-3-methylbutyl)-1^5,4^3-dimethyl-4^2,4^3-dihydro-41 H-5-oxa-3,8-diaza-4(6,4)-benzo[d]imidazola-2(2,4)-pyrimidina-1 (1,3)-piperidinacyclooctaphan-4^2-one]
0.0037 | C[C@@H]1CN2C[C@H](NCCOc3cc(cc4c3n(C)c(=O)n4CCC(C)(O)CO)Nc3nc2ncc3Cl)C1(F)F (stereo partly shown) [Compound 40]
> 0.4 | CNC(=O)COc1cc2cc3ccc2n(c1=O)CCCCO[C@@H]1C[C@H](C)CN(C1)c1ncc(Cl)c(n1)N3 [Compound B, reference compound]
0.0085 | C[C@@H]1CN2C[C@H](NCCOc3cc(cc4c3n(C)c(=O)n4C[C@H](O)C(C)(C)O)Nc3nc2ncc3Cl)C1(F)F [Compound 42]
> 0.4 | C[C@H]1CN2C[C@@H](NCCOc3cc(cc4[nH]c(=O)n(C)c34)Nc3nc2ncc3Cl)C1(F)F [Compound 32, (1^3R, 1^5S)-2^5-chloro-1^4,1^4-difluoro-1^5,4^3-dimethyl-4^2,4^3-dihydro-4^1H-5-oxa-3,8-diaza-4(6,4)-benzo[d]imidazola-2(2,4)-pyrimidina-1 (1,3)-piperidinacyclooctaphan-4^2-one]
0.0019 | C[C@@H]1CN2C[C@H](OCCOc3cc(cc4c3n(C)c(=O)n4CCC(C)(C)O)Nc3nc2ncc3Cl)C1(F)F [Compound 33, (1^3S,1^5R)-2^5-Chloro-1^4, 1^4-difluoro-4^1-(3-hydroxy-3-methylbutyl)-1^5,4^3-dimethyl-4^2,4^3-dihydro-4^1H-5,8-dioxa-3-aza-4(6,4)-benzo[d]imidazola-2(2,4)-pyrimidina-1 (1,3)-piperidinacyclooctaphan-4^2-one]
0.121 | CNC(=O)COc1cc2cc3cc(c2n(C)c1=O)OCCO[C@H]1C[C@@H](C)CN(C1)c1ncc(Cl)c(n1)N3 [Compound 7, 2-(((1^3S, 1^5R)-2^5-chloro-1^5,4^1-dimethyl-4^2-oxo-4^1,4^2-dihydro-5,8-dioxa-3-aza-4(6,8)-quinolina-2(2,4)-pyrimidina-1 (1,3)-piperidinacyclooctaphane-4^3-yl)oxy)-N-methylacetamide]
0.0019 | CNC(=O)COc1cc2cc3cc(c2n(C)c1=O)OCCCC1CN(CC(C)C1(F)F)c1ncc(Cl)c(n1)N3 (stereo not shown) [Compound 1]
0.0075 | C[C@@H]1CN2C[C@H](NCCOc3cc(cc4[nH]c(=O)n(C)c34)Nc3nc2ncc3Cl)C1(F)F [Compound 31, (1^3S,1^5R)-2^5-chloro-1^4,1^4-difluoro-1^5,4^3-dimethyl-4^2,4^3-dihydro-4^1H-5-oxa-3,8-diaza-4(6,4)-benzo[d]imidazola-2(2,4)-pyrimidina-1 (1,3)-piperidinacyclooctaphan-4^2-one]
> 0.4 | C[C@H]1CN2C[C@@H](NCCOc3cc(cc4[nH]c(=O)n(C)c34)Nc3nc2ncc3F)C1(F)F [Compound 37]
> 0.4 | C[C@H]1CN2C[C@@H](OCCOc3cc(cc4c3n(C)c(=O)n4CCC(C)(C)O)Nc3nc2ncc3Cl)C1(F)F [Compound 34, (1^3R, 1^5S)-2^5-Chloro-1^4,1^4-difluoro-4^1-(3-hydroxy-3-methylbutyl)-1^5,4^3-dimethyl-4^2,4^3-dihydro-4 H-5,8-dioxa-3-aza-4(6,4)-benzo[d]imidazola-2(2,4)-pyrimidina-1 (1,3)-piperidinacyclooctaphan-4^2-one]
0.15 | CNC(=O)COc1cc2cc3cc(c2n(C)c1=O)OCCC[C@@H]1CN(C[C@H](C)C1(F)F)c1ncc(Cl)c(n1)N3 [Compound 5, 2-(((1^3R, 1^5S)-2^5-Chloro-1^4, 1^4-difluoro-1^5,4^1-dimethyl-4^2-oxo-4^1,4^2-dihydro-5-oxa-3-aza-4(6,8)-quinolina-2(2,4)-pyrimidina-1 (1,3)-piperidinacyclooctaphane-4^3-yl)oxy)-N-methylacetamide]
0.0967 | C[C@@H]1CN2C[C@H](NCCOc3cc(cc4c3n(C)c(=O)n4CCC(C)(C)O)Nc3ccnc2n3)C1(F)F [Compound 39]
0.0044 | C[C@@H]1CN2C[C@H](CCCOc3cc(cc4c3n(C)c(=O)c(=O)n4C[C@H]3C[C@@H](O)C3)Nc3nc2ncc3Cl)C1(F)F [Compound 18-2]
> 0.4 | C[C@@H]1C[C@H]2CN(C1)c1ncc(Cl)c(n1)Nc1cc(c3c(c1)n(CCC(C)(C)O)c(=O)n3C)OCCO2 [Compound 13, (1^3S,1^5R)-2^5-chloro-4^1-(3-hydroxy-3-methylbutyl)-1^5,4^3-dimethyl-4^2,4^3-dihydro-4^1H-5,8-dioxa-3-aza-4(6,4)-benzo[d]imidazola-2(2,4)-pyrimidina-1 (1,3)-piperidinacyclooctaphan-4^2-one]
